Laboratory results reported in PubChem BioAssay AID330 (DTP/NCI, 2004).
Several values for one entry are separate records, joined by “and”; a condition that tells them apart may be missing. Identical values can stand only once. Toxic doses and inconclusive results are not listed. The calls were made as follows: active = survival T/C of 150% or more; inactive = T/C below 125% in these data.

Test system: P388 leukemia ip, CD2F1 mice, survival T/C
Assay: NCI In Vivo Anticancer Drug Screen. Data for tumor model P388 Leukemia (intraperitoneal) in CD2F1 (CDF1) mice
Settings: endpoint: median survival time, higher = longer survival
How it was run: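 Mice carrying the transplanted tumor received test compound or vehicle. Survival was recorded in each group, and the value is the treated-group measurement divided by that of the vehicle-treated control group.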

[1] = dose: 12.5 mg/kg/injection, schedule: Q01DX009 (ip), vehicle: other
[2] = dose: 25.0 mg/kg/injection, schedule: Q01DX009 (ip), vehicle: other
[3] = dose: 50.0 mg/kg/injection, schedule: Q01DX009 (ip), vehicle: other
[4] = dose: 100.0 mg/kg/injection, schedule: Q01DX009 (ip), vehicle: other
[5] = dose: 200.0 mg/kg/injection, schedule: Q01DX009 (ip), vehicle: other
[6] = dose: 50.0 mg/kg/injection, schedule: Q01DX005 (ip), vehicle: saline with Tween-80
[7] = dose: 100.0 mg/kg/injection, schedule: Q01DX005 (ip), vehicle: saline with Tween-80
[8] = dose: 200.0 mg/kg/injection, schedule: Q01DX005 (ip), vehicle: saline with Tween-80
[9] = dose: 50.0 mg/kg/injection, schedule: Q01DX005 (ip), vehicle: Klucel (hydroxypropylcellulose) (HPC)
[10] = dose: 100.0 mg/kg/injection, schedule: Q01DX005 (ip), vehicle: Klucel (hydroxypropylcellulose) (HPC)
[11] = dose: 200.0 mg/kg/injection, schedule: Q01DX005 (ip), vehicle: Klucel (hydroxypropylcellulose) (HPC)

Measured: T/C

[O-][n+]1ccccc1C[P+](c1ccccc1)(c1ccccc1)c1ccccc1
inactive: dose: 6.25 mg/kg/injection, schedule: Q01DX009 (ip), vehicle: water 99 % of control | dose: 12.5 mg/kg/injection, schedule: Q01DX009 (ip), vehicle: water 100 % of control and 86 % of control | dose: 25.0 mg/kg/injection, schedule: Q01DX009 (ip), vehicle: water 95 % of control | dose: 50.0 mg/kg/injection, schedule: Q01DX009 (ip), vehicle: water 100 % of control and 98 % of control

O=C1Nc2ccc(Br)cc2/C1=C/C(=O)c1ccccc1
inactive: dose: 50.0 mg/kg/injection, schedule: Q01DX009 (ip), vehicle: Klucel (hydroxypropylcellulose) (HPC) 111 % of control | dose: 100.0 mg/kg/injection, schedule: Q01DX009 (ip), vehicle: Klucel (hydroxypropylcellulose) (HPC) 101 % of control | dose: 200.0 mg/kg/injection, schedule: Q01DX009 (ip), vehicle: Klucel (hydroxypropylcellulose) (HPC) 103 % of control

[Cl][Pt+2][Cl].[NH-]C1CCCCCCC1.[NH-]C1CCCCCCC1
inactive: [1] 106 % of control | [2] 97 % of control | [3] 101 % of control | [4] 117 % of control | [5] 108 % of control

O=C(c1ccc(C(=O)N2CC2)cc1)N1CC1
inactive: dose: 10.0 mg/kg/injection, schedule: Q04DX003 (ip), vehicle: saline with Tween-80 118 % of control | dose: 20.0 mg/kg/injection, schedule: Q04DX003 (ip), vehicle: saline with Tween-80 109 % of control

COc1cc(O)c2c(=O)c3c(O)c(OC4OC(COC5OC(C)C(OC(C)=O)C(O)C5O)C(O)C(O)C4O)ccc3oc2c1 (stereo unspecified)
inactive: dose: 1.5 mg/kg/injection, schedule: Q01DX009 (ip), vehicle: saline 100 % of control | dose: 3.0 mg/kg/injection, schedule: Q01DX009 (ip), vehicle: saline 100 % of control | dose: 6.0 mg/kg/injection, schedule: Q01DX009 (ip), vehicle: saline 107 % of control | dose: 12.0 mg/kg/injection, schedule: Q01DX009 (ip), vehicle: saline 103 % of control

CN(/N=C1\C(=O)Nc2ccccc21)c1ccccc1
inactive: [6] 95 % of control | [7] 93 % of control | [8] 88 % of control

Cc1cc(Cl)c2c(c1N)C(=O)c1ccccc1C2=O
inactive: [9] 97 % of control | [10] 96 % of control | [11] 98 % of control

[CH3][Sn]([CH3])([S]c1nc(O)cc(=O)[nH]1)[S]c1nc(O)cc(=O)[nH]1
inactive: dose: 12.5 mg/kg/injection, schedule: Q01DX005 (ip), vehicle: Klucel (hydroxypropylcellulose) (HPC) 105 % of control and 108 % of control | dose: 25.0 mg/kg/injection, schedule: Q01DX005 (ip), vehicle: Klucel (hydroxypropylcellulose) (HPC) 96 % of control | [9] 117 % of control and 88 % of control and 89 % of control

CCCc1nc(NC(=O)c2ccccc2)nc(NC(=O)c2ccccc2)n1
inactive: [6] 102 % of control | [7] 106 % of control | [8] 106 % of control

Nc1ccc(Cl)cc1N
inactive: [1] 105 % of control | dose: 12.5 mg/kg/injection, schedule: Q01DX009 (ip), vehicle: saline with Tween-80 102 % of control | [2] 100 % of control | dose: 25.0 mg/kg/injection, schedule: Q01DX009 (ip), vehicle: saline with Tween-80 102 % of control and 104 % of control | [3] 113 % of control | dose: 50.0 mg/kg/injection, schedule: Q01DX009 (ip), vehicle: saline with Tween-80 101 % of control and 107 % of control | [4] 105 % of control | dose: 100.0 mg/kg/injection, schedule: Q01DX009 (ip), vehicle: saline with Tween-80 100 % of control and 105 % of control | [5] 105 % of control | dose: 200.0 mg/kg/injection, schedule: Q01DX009 (ip), vehicle: saline with Tween-80 114 % of control and 121 % of control

CCc1nc(N)nc(N)c1-c1ccc(NCCc2ccccc2)c(N)c1
inactive: [9] 90 % of control | [10] 96 % of control | [11] 100 % of control

Oc1c(Cl)cc(Cl)cc1C=Nc1ccc2c(ccc3c4ccccc4ccc23)c1
inactive: dose: 25.0 mg/kg/injection, schedule: Q04DX003 (ip), vehicle: Klucel (hydroxypropylcellulose) (HPC) 105 % of control | dose: 50.0 mg/kg/injection, schedule: Q04DX003 (ip), vehicle: Klucel (hydroxypropylcellulose) (HPC) 105 % of control | dose: 100.0 mg/kg/injection, schedule: Q04DX003 (ip), vehicle: Klucel (hydroxypropylcellulose) (HPC) 109 % of control and 86 % of control
